Measurements reported in patent US20170119907A1, “Targeted Therapeutics” (MEDIVATION TECHNOLOGIES, INC., priority 2014, published 2017).

What was measured:
[1] = tested on: Raji cells; assay: Binding to Raji cells (fluorescence, Gel Logic system); format: cell-based; conditions: 10 μM in PBS; 1, 5, 15 or 30 minutes; 530 nm/600 nm; FIG. 2B
Method: 10^6 Raji cells were incubated with 10 μM Compound 4 or 10 μM Compound 20 in PBS or with PBS alone for 1, 5, 15 or 30 minutes. Cells were washed once in PBS and then the fluorescence of Compound 4 or Compound 20 was analyzed in a Gel Logic system with 530 nm/600 nm excitation/emission settings.

[2] = tested on: hMSCs; assay: Differentiation of human MSCs to chondrocytes in pellet culture (aggrecan stain); format: cell-based; conditions: for ECM area (Aggrecan stain): 10 μM, 21 days, Differentiation Medium +, aggrecan ratio relative to cell number; for Differentiation of hMSCs to chondrocytes (in words): compound and differentiation medium, with or without priming, relative to control without differentiation medium
Method: hMSCs (Lonza, Cat No PT-2501) were cultured in complete mesenchymal stem cell culture medium (Lonza, Cat No PT-3238). For differentiation experiments, complete mesenchymal stem cell culture medium was removed, and hMSCs were either incubated for 30 min in chondrocyte differentiation medium containing TGFβ (R&D Systems, Cat No CCM005 and CCM006) (primed condition) or maintained in complete mesenchymal stem cell culture medium for 30 min.
hMSCs were collected, washed in PBS, and incubated in 500 μL of 10 μM Compound 4 or 20 in PBS for 20 min. Cells were washed in PBS and counted. 5×10^5 cells were placed in a 15 mL tube. The cells were centrifuged at 500 g for 7 min, and either 500 μL of maintenance medium (Lonza, Cat No PT-3238) or chondrocyte differentiation medium was added gently. The medium was changed every 2 to 3 days for three weeks, maintaining the 500 μL volume.
After three weeks, the medium was removed, and cell pellets were fixed in 500 μL of a 4% paraformaldehyde (PFA) in PBS solution for 20 min at room temperature. The solution was removed, and 500 μL of a 4% PFA, 15% sucrose in PBS was added, and the mixture was left overnight. The solution was removed, and 500 μL of a 4% PFA, 30% sucrose in PBS was added, then the mixture was left overnight or until the pellet was in the bottom of the tube. The pellet culture was frozen in TISSUE-TEK® O.C.T. compound (Cat No 4583), and 5 μm cuts were made. The slices were fixed on a positive charged slide (Cell Path, Cat No MDB-0102-54A). A hydrophobic pen was used to draw a line around the cuts on the slide.
100-300 μL of blocking solution (1% BSA, 0.3% TRITON® X-100 in PBS) was added on top of the slices which were left for 1 h at RT. The blocking solution was extracted with a micropipette. Primary antibody (goat anti-aggrecan G1-IgD-G2 domain, R&D systems, Cat No AF1220) was diluted 1:20 in blocking solution, and 100-200 μL of this solution was added on top of the slices. The slides were left at 4° C. overnight in a humidified box. The primary antibody solutions were removed, and the slices were washed 3 times with 1% BSA in PBS for 5 min. The lines were redrawn around the slices with the hydrophobic pen. From the incubation with the secondary antibody and on, the samples were kept in the dark to avoid degrading the fluorophore.
The secondary antibodies were diluted 1:100 in blocking solution. 100-200 μL of the secondary antibody solution (donkey anti-goat IgG Alexa fluor 488, Invitrogen, Cat No A11055) was added to the slices. The slices were incubated for 1 h at RT. The slices were washed 3 times with 1% BSA in PBS for 5 min. The lines were redrawn around the slices with the hydrophobic pen.
Slices were stained with 100-200 μL of a 1:2000 dilution of DAPI in PBS for 5 min at RT. The DAPI was removed, and the slices were washed 3 times with PBS for 5 min, then washed a 4th time with distilled water for another 5 min. The slides were left to dry. 30 μL of Fluorescent Mounting Medium was added, and then the slices were covered with a coverslip.

[3] = tested on: Raji cells; assay: Adherence of Raji cells to rabbit dorsal femoral condyle explants; format: cell-based; conditions: photomicrographs, FIG. 6B
[4] = tested on: Raji cells / rabbit dorsal femoral condyle explants; assay: Adherence of calcein-labeled Raji cells to rabbit dorsal femoral condyle explants; format: cell-based; conditions: cells incubated with 10 μM compound in PBS, 30 min; 475/535 nm; FIG. 6B
Method: Raji cells were labeled with calcein for 30 min, washed with PBS, and incubated with Compound 4 or Compound 20 (10 μM in PBS) or with PBS for 30 min. Cells were washed in PBS. Rabbit dorsal femoral condyle explants were then incubated for 30 min with (1) the PBS-incubated, calcein-labeled Raji cells or (2) the calcein-labeled Raji cells that had been incubated with 10 μM Compound 4 or Compound 20. Explants were washed twice with excess PBS, and the 475/535 nm filter set on the Molecular Imaging Gel Logic system was used to detect the binding of […] to the explants by detecting the calcein.

[5] = tested on: human MSCs / rabbit dorsal femoral condyle explants; assay: Adherence of calcein-labeled human MSCs to rabbit dorsal femoral condyle explants; format: cell-based; conditions: MSCs incubated with compound (Compound 4: 5 μM or 10 μM), 30 min or 10 min; 475/535 nm; FIG. 6A
Method: Human MSCs were labeled with calcein for 30 min, washed with PBS, and incubated with Compound 4 (5 μM or 10 μM) or with PBS for 30 min. Rabbit dorsal femoral condyle explants were then incubated for 30 min with (1) the PBS-incubated, calcein-labeled MSCs, (2) the calcein-labeled MSCs incubated with 5 μM Compound 4, or (3) the calcein-labeled MSCs incubated with 10 μM Compound 4. Explants were washed twice with excess PBS, and the 475/535 nm filter set on the Molecular Imaging Gel Logic system was used to detect the binding of MSCs to the explants by detecting the calcein. In another experiment, the procedure was repeated with two batches of Compound 4, and with Compound 20, with an incubation time of 10 min instead of 30 min.

[6] = tested on: rabbit dorsal femoral condyle explants; assay: Binding to rabbit dorsal femoral condyle explants (fluorescence staining); conditions: 100 μM in PBS, 30 min; 530/600 nm; FIGS. 5A, 5B
Method: Rabbit dorsal femoral condyle explants were incubated with PBS or 100 μM Compound 4 or Compound 20 in PBS for 30 min. Explants were washed twice in excess PBS. Staining of explants was determined using the 530/600 nm filter set on the Molecular Imaging Gel Logic system.

[7] = tested on: human MSCs; assay: Adherence of human MSCs to rabbit dorsal femoral condyle explants; format: cell-based; conditions: photomicrographs, FIG. 6A
[8] = tested on: Raji cells; assay: Binding to Raji cells (visual inspection of staining); format: cell-based; conditions: 10 μM in PBS, 30 min; FIG. 4B
Method: Raji cells were incubated in PBS without Compounds 4 or 20 or with 10 μM Compound 4 or 10 μM Compound 20 in PBS for 30 min and then washed twice with 1 mL PBS. Samples were visually inspected to determine staining

[9] = tested on: Raji cells; assay: Binding to and staining of Raji cells (Example B1b); format: cell-based; conditions: photomicrographs; for binding to Raji cells: FIG. 2B, Example B1b; for binding to and staining of Raji cells: FIG. 4B

Compound	Binding to Raji cells (fluorescence) [1]	ECM area (Aggrecan stain) ([2]; Priming +)	ECM area (Aggrecan stain) ([2]; Priming −)	Differentiation of hMSCs to chondrocytes (in words) [2]	adherence of Raji cells to rabbit dorsal femoral condyle explants [3]	Adherence of calcein-labeled Raji cells to explants [4]	Adherence of calcein-labeled human MSCs to explants [5]	Binding to rabbit dorsal femoral condyle explants (fluorescence) [6]	adherence of human MSCs to rabbit dorsal femoral condyle explants [7]	Binding to Raji cells (visual staining) [8]	binding to Raji cells [9]	binding to and staining of Raji cells [9]
Cc1cc2nc3cc(C)c(NCCCCCCCCNc4cc5c(cc4C)nc4cc(C)c(N)cc4[n+]5-c4ccccc4)cc3[n+](-c3ccccc3)c2cc1N.[Cl-].[Cl-] [Compound 4, 7,7′-(octane-1,8-diylbis(azanediyl))bis(3-amino-2,8-dimethyl-5-phenylphenazin-5-ium) chloride]	bind to Raji cells	1.41	0.74	induced high levels of differentiation	promote adherence	promoted adherence	promote adherence	strong fluorescence	promote adherence	bind to Raji cells	binding	bind to and stain
Cc1cc2nc3cc(C)c(NCCCCCCNC(=O)c4ccc(-c5ccc(C(=O)NCCCCCCNc6cc7c(cc6C)nc6cc(C)c(N)cc6[n+]7-c6ccccc6)cc5)cc4)cc3[n+](-c3ccccc3)c2cc1N.[Cl-].[Cl-] [Compound 20, (3-amino-7-{[6-({4-[4-({6-[(7-amino-5-chloranuide-2,8-dimethyl-5-phenyl-5λ^6,10-phenazin-5-ylium-3-yl)amino]hexyl}carbamoyl)phenyl]phenyl}formamido)hexyl]amino}-2,8-dimethyl-5-phenyl-5λ^6,10-phenazin-5-ylium-5-e)chloranuide]	bind to Raji cells	0.97	0.74	induced high levels of differentiation	promote adherence	promoted adherence	promote adherence	strong fluorescence	promote adherence	bind to Raji cells	binding	bind to and stain
